Consider three molecules from article PMC12676205, “New Se‐Compounds With Antileishmanial, Antitumor, and Carbonic Anhydrase Inhibitory Properties” (Archiv Der Pharmazie, 2025).

Data set [1] has as its system HOP‐62. Kind of data set: NCI-60 five-dose assay, HOP-62. Format: cell-based. The settings on record: Homo sapiens, 48 h. Here is the method: (§1) All the compounds were selected for further testing since they fulfilled the set NCI one‐dose screening parameters for threshold inhibition. They were tested at five different concentrations (0.01, 0.1, 1, 10, and 100 μM) for 48 h against the same cell line panel and the dose–response curves along with three response parameters (50% growth inhibitory concentration [GI50], the 50% lethal concentration [LC50], and the total growth inhibition [TGI]) were calculated for every cancer cell line. The full reported data and corresponding graphs are compiled in Supporting Information S1. Average values of GI50, TGI, and LC50 values of all the reported selenoesters in all the subpanels are represented in Figure 4.
(§2) All the reported selenoesters (1–6) were submitted to the DTP of NCI. First, they were screened at a single dose (10^−5 M) against a panel of 60 cancer cell lines derived from different tumor types following the methodology available (https://dtp.cancer.gov/discovery_development/nci-60/methodology.htm). As all the compounds satisfied the threshold inhibition criteria established, they were further assessed at five concentrations (0.01, 0.1, 1, 10, and 100 µM) against the same cell panel to obtain their corresponding dose–response curves and three antitumor parameters (GI50, TGI, and LC50) by regression. GraphPad Prism 7.0 Software was used to represent the corresponding graphs.

The subject of data set [2] is THP‐1 cells. Kind of data set: THP-1 cytotoxicity (MTT, PMA-differentiated macrophages). Format: cell-based, human. The settings on record: 48 h, mean ± SD. The procedure:
The synthesized compounds were tested for their antileishmanial activity against promastigotes of L. major and L. infantum at four concentrations (1, 10, 50, and 100 µM) for 48 h using the 3‐(4,5‐dimethylthiazol‐2‐yl)‐2,5‐diphenyltetrazolium bromide (MTT) assay. In this evaluation, the activity was expressed in IC50 (concentration inhibiting the parasite growth by 50%). […] The CC50 was defined as the concentration of selenoesters that led to a reduction in the viability of the macrophages, such that only 50% of the cells survived when compared to the control group. This cell line, derived from the blood of a human with acute monocytic leukemia, was chosen as it has been widely reported that it resembles tissue macrophages to various extents as well as supports the infection by numerous Leishmania promastigotes. The selectivity indexes (SIs) were calculated as the ratio between toxicity on macrophages (THP‐1 cells)/antileishmanial activity. The data for standard control drugs (miltefosine and paromomycin) are included for comparison purposes.
THP‐1 cells were seeded at a concentration of 8 × 10^4 cells per well in 96‐well plates and incubated with phorbol 12‐myristate 13‐acetate (PMA) (50 ng/mL) for 72 h (37°C and 5% CO2) to differentiate them into macrophages. After that, the culture medium was removed and the cells were treated with the reported selenoesters at different increasing concentrations ranging from 1 to 200 µM for 48 h at 37°C and 5% of CO2. Macrophages treated with DMSO (1%) were used as controls, and the compounds were dissolved in DMSO at a stock concentration of 10^−2 M. Afterward, the MTT assay was performed. Data were obtained from three independent experiments performed in triplicate. The absorbance was measured at 550 nm using a MultiskanEX photometric plate reader for microplates. The CC50 values were calculated using OriginPro 8.5.1. software by nonlinear curve fitting. SIs were calculated as the ratio of the CC50 values determined for the macrophages and the IC50 values obtained in each Leishmania promastigote. GraphPad Prism 7.0 Software was used to obtain the corresponding graphs.

In data set [3] the test system is HT29 colon cancer cell line. The experiment in a line: NCI-60 one-dose screen, HT29. It is filed as cell-based, human. Particulars: 10 µM, 48 h. The procedure: To explore the potential antiproliferative properties of the newly synthesized derivatives, they were submitted to the National Cancer Institute's (NCI) Developmental Therapeutics Program (DTP) for screening at 10 μM in a panel of approximately 60 human cancer cell lines from different cancer types. The results are reported as the growth percentage (GP), which is the growth of the treated cells with each compound for 48 h compared to the untreated controls (Figure 2). […] The initial screening results are summarized in Figure 2, and the mean GP values of each subpanel are depicted in Figure 3. The full reports are compiled in the Supplementary Section.
as §2

Data set [4] deals with OVCAR‐5 ovarian cancer cells. Kind of data set: NCI-60 five-dose assay, OVCAR-5. Format: cell-based, human. Particulars: 48 h. The procedure: as §1, §2

Some results are limits rather than exact numbers.

The molecule `O=C(C[Se]C(=O)c1ccccc1)Nc1ccc([N+](=O)[O-])c(C(F)(F)F)c1` [Compound 2, Se‐(2‐((4‐nitro‐3‐(trifluoromethyl)phenyl)amino)‐2‐oxoethyl)benzoselenoate] showed a GI50 in data set [1] of 0.86 µM.
Regarding `O=C(C[Se]C(=O)c1ccccc1)Nc1cccc(OC(F)(F)F)c1` [Compound 3, Se‐(2‐oxo‐2‐((3‐(trifluoromethoxy)phenyl)amino)ethyl)benzoselenoate], in data set [2], the CC50 is > 200 µM. For the same molecule, the “behaviour in HT29” value in data set [3] is “potent cytotoxic activity”.
On to `O=C(C[Se]C(=O)c1ccco1)Nc1ccc([N+](=O)[O-])c(C(F)(F)F)c1` [Compound 5, Se‐(2‐((4‐nitro‐3‐(trifluoromethyl)phenyl)amino)‐2‐oxoethyl)furan‐2‐carboselenoate], for which the “cytotoxicity against OVCAR‐5” value in data set [4] is recorded as “remarkable cytotoxicity”.
